Converted amounts (≈) assume the structure as drawn.
System: KB
Assay: Cytotoxicity against human KB cells
Type: functional
Conditions: read-out: ED50 (the source's name)

COc1c(OC)c(O)c2c(=O)cc(C)oc2c1C
EC50: 60 mg/L (≈ 240 µM)
